One data set concerns Vinca sp. Description: Phytotoxicity (plant tissue injury) testing on Vinca sp. In kind it is in vivo. More on the design: key: −: No plant tissue damage; +: Minimal; ++: moderate; +++: severe plant tissue damage. The method, then:
FIGS. 2A to 2C illustrate phytotoxicity (plant tissue injury) results. FIG. 2A illustrates untreated, FIG. 2B illustrates OSCF nanoparticle, and FIG. 2C illustrates OSCF nanogel film materials, sprayed on Vinca. sp. Under green-house conditions, approximately 5 mL of synthesized formula was sprayed on plants at 7:30 AM on the test day. After 72 hrs, all treatments were non-phytotoxic (−) to plants.
FIG. 1 illustrates digital photographs of some representative citrus leaf surfaces before and after rigorous spray washing with water (simulating over 6 inches of rainfall). Phytotoxicity studies were carried out using Vinca sp. (an ornamental plant, highly susceptible to phytotoxicity; purchased from Home Depot).
(§1) Tables 2 and 3, Example 2, illustrate phytotoxicity testing of embodiments of the present disclosure.

A further data set has as its system Tomato sp. Description: Phytotoxicity testing on Tomato sp. In kind it is in vivo. More on the design: key: −: No plant tissue damage; +: Minimal; ++: moderate; +++: severe plant tissue damage.
Text: as §1

The test system of a further data set is Citrus (Persian Lime). Description: Phytotoxicity testing on Citrus (Persian Lime). In kind it is in vivo. More on the design: key: −: No plant tissue damage; +: Minimal; ++: moderate; +++: severe plant tissue damage.
Text: as §1

Data set [1] relates to Asian Citrus Psyllid (ACP, Diaphorina citri). Conditions: field trials, literature [7-9]; cited from earlier work.
Data set [2] has the same test system. Conditions: chemical repellants, literature [11-13]; cited from earlier work.

With `O=S(=O)([O-])[O-].[Cu+2]` [CuSO4], the “Phytotoxicity, plant tissue damage” value with Vinca sp (24 hr, Table 2) is given as “+”; with Vinca sp (24 hr, Table 3), “+”; with Vinca sp (48 hr, Table 2), “++”; with Vinca sp (48 hr, Table 3) it was “++”; in the data set on Vinca sp (72 hr, Table 2) it was “+++”; in the data set with Vinca sp (72 hr, Table 3), “+++”. Besides, the “Phytotoxicity, plant tissue damage” value is “+” with Tomato sp (24 hr); “++” in the data set on Tomato sp (48 hr); “+++” in the data set with Tomato sp (72 hr); “+” in the data set with Citrus (Persian Lime) (24 hr); “++” with Citrus (Persian Lime) (48 hr); “+++” with Citrus (Persian Lime) (72 hr).
With `CN1COCN(Cc2cnc(Cl)s2)/C1=N\[N+](=O)[O-]` [thiamethoxam], in data set [1], the “Controlling ACP populations” value is “effective in controlling ACP populations”.
In the case of `O=[N+]([O-])NC1=NCCN1Cc1ccc(Cl)nc1` [imidacloprid], in data set [1], the “Controlling ACP populations” value is on record as “effective in controlling ACP populations”.
In the case of `CN/C(=N\[N+](=O)[O-])NCc1cnc(Cl)s1` [clothianidin], in data set [1], the “Controlling ACP populations” value is “effective in controlling ACP populations”.
With `CSSC` [dimethyldisulfide (DMDS), dimethyldisulfide], the ACP repellant properties result in data set [2] is “moderate ACP repellant properties”.
As to `CC1(C)C(C(=O)OC(C#N)c2cccc(Oc3ccccc3)c2)C1(C)C` (stereo not drawn) [fenpropathrin], in data set [1], the “Controlling ACP populations” value is “effective in controlling ACP populations”.
As for `CCOP(=S)(OCC)Oc1nc(Cl)c(Cl)cc1Cl` [chlorpyrifos], in data set [1], the “Controlling ACP populations” value is recorded as “effective in controlling ACP populations”.

The values above are taken from patent US20150342194A1, “NON-PHYTOTOXIC COMPOSITE POLYMER FILM BARRIER AS A REPELLENT FOR CONTROLLING INFECTION” (priority 2014, published 2015).
